Data: patent US10864154B2, “Skin care compositions and their applications” (SAMI LABS LIMITED, priority 2019, dated 2020)

What was measured:
Mushroom Tyrosinase = target: T1, Mushroom Tyrosinase (Agaricus bisporus, UniProt C7FF04); test: Tyrosinase inhibition assay (L-Tyrosine substrate, absorbance at 492 nm); assay type: biochemical; conditions: EAA alone
T1 construct: purchased Sigma
Procedure: Tyrosinase acts on L-Tyrosine forming a pink colored complex, the intensity of which is measured at 492 nm. The Tyrosinase activity in the presence and absence of inhibitor is assayed spectrophotometrically at 492 nm using a Microplate reader.
Mushroom Tyrosinase enzyme is prepared by dissolving entire content in […], pH 6.5 pre-chilled enzyme buffer to get […]. Gentle shaking for five minutes aids in dissolution of enzyme. Aliquot the stock into vials of 100 μl each and keep at −80° until use for at least 2 months. Multiple freeze-thaw cycles of the enzyme must be avoided.
A stock of 2.50 mM L-Tyrosine Disodium salt (Sigma) is prepared in 1.5 mM phosphate buffer (pH 6.5) by dissolving 2.845 mg/5 ml.
Samples were dissolved in DMSO and further dilutions were carried out in buffer
The assay was performed in a 96 well clear microtitre plate. Different concentrations of the composition comprising ethyl-ascorbic acid and tetrahydrocurcuminoids were pre incubated with 10 μl of […] stock Solution of Mushroom Tyrosinase (f.c. 6 U/well) at 37° C. for 10 minutes. The reaction is initiated by adding 2.5 mM L-Tyrosine disodium and the absorbance is read immediately every minute until 15 minutes using the microplate reader at 492 nm. A test blank well was prepared for each sample without the enzyme. Enzyme reaction with vehicle alone served as a control for enzyme activity. Kojic acid was used as a positive control.
The results are expressed as IC50 values using Graphpad prism software. The percentage of inhibition of melanin is calculated as follows,
Where C-absorbance in control and T-absorbance in test sample

[1] = tested on: B16F1 mouse melanoma cells; test: Melanogenesis inhibition in α-MSH stimulated B16F1 cells (melanin at 405 nm); assay type: cell-based; conditions: EAA alone, 72 hours
Procedure: The intracellular melanin in B16F1 mouse melanoma cells is extracted by 1N NaOH. The brown colored melanin thus extracted is estimated at 405 nm. The synthesis of melanin is inhibited in the presence of inhibitor which results in reduced absorbance at 405 nm.
MSH Stock was prepared at 1 mg/ml in distilled water. MSH at a final concentration of 1 nM was used to stimulate melanogenesis
B16F1 mouse melanoma cells were cultured for 24 hours in a 96 well microtiter plate at a seeding density of 5000 cells per well. Cells are treated with varying non cytotoxic concentrations of the sample over a period of 72 hours along with melanin stimulating hormone (∝-MSH) to induce the synthesis of melanin pigment. Untreated cells and cells without ∝-MSH addition were used as positive and negative control. The melanin produced by the cells was extracted by 1N NaOH and the absorbance was read at 405 nm in a Microplate reader. The inhibitory effect of the sample is calculated based on the degree of inhibition of melanin formation.
The results are expressed as IC50 values using Graph pad prism software. The percentage of inhibition of melanin is calculated as follows,
[formula] Where C-absorbance due to melanin in untreated cells
T-absorbance due to melanin in sample treated cells

T1 sequence (C7FF04 1-392 limits assumed): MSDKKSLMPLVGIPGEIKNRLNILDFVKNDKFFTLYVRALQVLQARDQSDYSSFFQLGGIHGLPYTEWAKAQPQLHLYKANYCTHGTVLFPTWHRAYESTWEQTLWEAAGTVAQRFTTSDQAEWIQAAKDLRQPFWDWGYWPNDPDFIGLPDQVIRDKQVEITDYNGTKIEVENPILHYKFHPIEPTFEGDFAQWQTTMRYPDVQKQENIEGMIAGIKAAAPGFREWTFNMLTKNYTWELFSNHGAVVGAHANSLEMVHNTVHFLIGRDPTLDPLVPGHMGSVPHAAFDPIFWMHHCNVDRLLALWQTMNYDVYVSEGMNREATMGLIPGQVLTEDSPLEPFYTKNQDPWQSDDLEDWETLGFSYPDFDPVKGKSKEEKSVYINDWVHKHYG

% Inhibition of tyrosinase activity (Mushroom Tyrosinase; 62.5 μg/ml): Nil
% Inhibition of tyrosinase activity (Mushroom Tyrosinase; 125 μg/ml): Nil
inhibition at 250 µg/mL (Mushroom Tyrosinase; 250 μg/ml): 11.6%
inhibition at 500 µg/mL (Mushroom Tyrosinase; 500 μg/ml): 28.3%
Structure (SMILES): CCOC1=C(O)C(=O)O[C@@H]1[C@@H](O)CO [Ethyl-ascorbic acid (EAA), 3-O-ethyl-ascorbic acid]
% Inhibition of melanogenesis ([1]; 0.625 μg/ml): Nil
% Inhibition of melanogenesis ([1]; 0.625 μg/ml, listed as ethyl-ascorbic acid): did not show any melanogenesis inhibition
% Inhibition of melanogenesis ([1]; 1.25 μg/ml): Nil
